Measured values taken from ChEMBL document CHEMBL2417435, “The discovery of potent blockers of the canonical transient receptor channels, TRPC3 and TRPC6, based on an anilino-thiazole pharmacophore” (Bioorg Med Chem Lett, 2013).
Activity calls are given as the source filed them. No cut-off for these calls is given here.

Assays:
[1] = Clearance in rat at 0.86 mg/kg, iv; assay type: ADME, organism-based; parameters: dose 0.86 mg/kg, route intravenous; conditions: in vivo
[2] = tested on: Rattus norvegicus; assay: Dose normalized AUC in rat at 0.86 mg/kg, iv; assay type: ADME, organism-based; parameters: dose 0.86 mg/kg, route intravenous; conditions: in vivo
[3] = Mean residence time in rat at 0.86 mg/kg, iv; assay type: ADME, organism-based; parameters: dose 0.86 mg/kg, route intravenous; conditions: in vivo
[4] = Cmax in rat at 0.86 mg/kg, iv; assay type: ADME, organism-based; parameters: dose 0.86 mg/kg, route intravenous; conditions: in vivo
[5] = molecular target: T1, Short transient receptor potential channel 3 (Homo sapiens, UniProt Q13507); assay: Inhibition of human recombinant TRPC3 expressed in HEK293-MSRII cells assessed as carbachol-stimulated Ca2+/Na+ influx after 10 mins by FLIPR assay; assay type: cell-based
T1 sequence (Q13507 whole entry): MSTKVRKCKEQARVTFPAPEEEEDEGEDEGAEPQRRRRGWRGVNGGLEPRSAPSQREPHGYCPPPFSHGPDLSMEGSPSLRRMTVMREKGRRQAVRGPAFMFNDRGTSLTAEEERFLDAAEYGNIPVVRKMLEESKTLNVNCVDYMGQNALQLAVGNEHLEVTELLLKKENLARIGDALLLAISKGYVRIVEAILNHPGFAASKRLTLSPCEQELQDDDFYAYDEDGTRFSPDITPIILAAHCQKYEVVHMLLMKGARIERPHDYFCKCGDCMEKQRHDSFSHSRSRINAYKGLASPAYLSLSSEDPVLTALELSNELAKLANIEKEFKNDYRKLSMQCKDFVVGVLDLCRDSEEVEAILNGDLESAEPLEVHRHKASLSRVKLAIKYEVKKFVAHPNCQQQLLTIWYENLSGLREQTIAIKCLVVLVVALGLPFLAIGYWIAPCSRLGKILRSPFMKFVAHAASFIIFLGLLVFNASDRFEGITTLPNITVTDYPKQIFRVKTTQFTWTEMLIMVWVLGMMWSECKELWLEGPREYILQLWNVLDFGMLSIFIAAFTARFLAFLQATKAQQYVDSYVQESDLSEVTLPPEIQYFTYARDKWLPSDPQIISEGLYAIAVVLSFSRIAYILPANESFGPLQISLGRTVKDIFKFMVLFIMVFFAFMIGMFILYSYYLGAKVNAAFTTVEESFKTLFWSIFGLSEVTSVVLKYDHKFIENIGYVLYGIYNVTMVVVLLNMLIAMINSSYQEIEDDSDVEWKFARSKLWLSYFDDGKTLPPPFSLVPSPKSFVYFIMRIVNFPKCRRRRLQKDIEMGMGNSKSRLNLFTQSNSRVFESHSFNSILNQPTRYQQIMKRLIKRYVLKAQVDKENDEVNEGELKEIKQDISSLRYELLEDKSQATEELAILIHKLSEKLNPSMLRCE

[6] = molecular target: T2, Short transient receptor potential channel 6 (Homo sapiens, UniProt Q9Y210); assay: Inhibition of human recombinant TRPC6 expressed in HEK293-MSRII cells assessed as carbachol-stimulated Ca2+/Na+ influx after 10 mins by FLIPR assay; assay type: cell-based
T2 sequence (Q9Y210 whole entry): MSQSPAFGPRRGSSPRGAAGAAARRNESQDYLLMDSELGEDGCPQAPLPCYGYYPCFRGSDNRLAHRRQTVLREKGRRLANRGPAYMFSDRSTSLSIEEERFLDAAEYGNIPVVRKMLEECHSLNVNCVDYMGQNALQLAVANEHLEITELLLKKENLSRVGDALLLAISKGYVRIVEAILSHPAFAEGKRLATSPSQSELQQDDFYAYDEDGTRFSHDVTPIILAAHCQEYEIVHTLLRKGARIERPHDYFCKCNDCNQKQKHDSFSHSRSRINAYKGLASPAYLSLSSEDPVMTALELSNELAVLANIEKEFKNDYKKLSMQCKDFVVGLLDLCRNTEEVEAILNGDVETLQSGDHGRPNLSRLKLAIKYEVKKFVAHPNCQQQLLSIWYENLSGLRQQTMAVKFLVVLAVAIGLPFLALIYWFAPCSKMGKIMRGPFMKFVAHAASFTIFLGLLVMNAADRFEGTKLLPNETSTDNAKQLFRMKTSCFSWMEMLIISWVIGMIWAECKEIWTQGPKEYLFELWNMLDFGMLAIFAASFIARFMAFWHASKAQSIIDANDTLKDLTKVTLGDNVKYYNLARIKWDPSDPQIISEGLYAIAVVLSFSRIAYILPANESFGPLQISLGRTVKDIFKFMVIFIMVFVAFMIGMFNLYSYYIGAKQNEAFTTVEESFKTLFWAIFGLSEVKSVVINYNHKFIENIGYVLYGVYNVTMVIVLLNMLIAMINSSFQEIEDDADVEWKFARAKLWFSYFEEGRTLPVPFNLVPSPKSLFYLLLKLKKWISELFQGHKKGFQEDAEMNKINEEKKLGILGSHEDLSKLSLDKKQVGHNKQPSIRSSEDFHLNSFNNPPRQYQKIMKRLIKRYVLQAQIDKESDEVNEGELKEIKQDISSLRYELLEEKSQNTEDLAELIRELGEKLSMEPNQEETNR

[7] = Oral bioavailability in rat at 0.86 mg/kg; assay type: ADME, organism-based; conditions: in vivo
[8] = Cmax in rat at 0.93 mg/kg, iv; assay type: ADME, organism-based; parameters: dose 0.93 mg/kg, route intravenous; conditions: in vivo
[9] = tested on: Rattus norvegicus; assay: Dose normalized AUC in rat at 0.93 mg/kg, iv; assay type: ADME, organism-based; parameters: dose 0.93 mg/kg, route intravenous; conditions: in vivo
[10] = tested on: Rattus norvegicus; assay: Mean residence time in rat at 0.93 mg/kg, iv; assay type: ADME, organism-based; parameters: dose 0.93 mg/kg, route intravenous; conditions: in vivo
[11] = Oral bioavailability in rat at 0.93 mg/kg; assay type: ADME, organism-based; conditions: in vivo
[12] = tested on: Rattus norvegicus; assay: Volume of distribution at steady state in rat at 0.93 mg/kg, iv; assay type: ADME, organism-based; parameters: dose 0.93 mg/kg, route intravenous; conditions: in vivo
[13] = tested on: Rattus norvegicus; assay: Dose normalized AUC in rat at 1.05 mg/kg, iv; assay type: ADME, organism-based; parameters: dose 1.05 mg/kg, route intravenous; conditions: in vivo
[14] = Clearance in rat at 1.05 mg/kg, iv; assay type: ADME, organism-based; parameters: dose 1.05 mg/kg, route intravenous; conditions: in vivo
[15] = Cmax in rat at 1.05 mg/kg, iv; assay type: ADME, organism-based; parameters: dose 1.05 mg/kg, route intravenous; conditions: in vivo
[16] = Oral bioavailability in rat at 1.05 mg/kg; assay type: ADME, organism-based; conditions: in vivo
[17] = Mean residence time in rat at 1.05 mg/kg, iv; assay type: ADME, organism-based; parameters: dose 1.05 mg/kg, route intravenous; conditions: in vivo
[18] = molecular target: T3, Short transient receptor potential channel 6 (Homo sapiens) (UniProt Q9Y210); assay: Inhibition of human recombinant TRPC6 expressed in HEK293 cells assessed as 1-oleoyl-2-acetyl-glycerol-stimulated current at 0.01 to 0.03 uM by whole cell electrophysiology assay; assay type: cell-based
T3 sequence (whole entry): T2 sequence (Q9Y210 whole entry)

[19] = molecular target: T4, Short transient receptor potential channel 3 (Homo sapiens) (UniProt Q13507); assay: Inhibition of human recombinant TRPC3 expressed in HEK293 cells assessed as 1-oleoyl-2-acetyl-glycerol-stimulated current at 0.01 to 0.03 uM by whole cell electrophysiology assay; assay type: cell-based
T4 sequence (whole entry): T1 sequence (Q13507 whole entry)

Question: With `CC1CCCN(C(=O)c2nc(Nc3cc4c(cc3F)OCO4)sc2Cl)C1C` (stereo unspecified) as the molecule, how does the clearance [1] read?
Answer: 46 mL/min/kg

Question: And the AUC/dose [2]?
Answer: 0.3 kg·L·h

Question: And the MRT [3]?
Answer: 24 min

Question: What about the Cmax [4] of the same molecule?
Answer: 490 ng/mL

Question: And the IC50 [5]?
Answer: 32 nM

Question: And the IC50 [6]?
Answer: 4 nM

Question: And the bioavailability [7]?
Answer: 7%

Question: What does the source list for `Cc1ccc(Nc2nc(C(=O)N3CCCCC3c3ccccc3)cs2)cc1` (stereo unspecified)?
Answer: IC50 [5]: 12600 nM; IC50 [6]: 15800 nM

Question: What does the source list for `O=C(c1csc(Nc2ccc3c(c2)OCO3)n1)N1CCc2ccccc2C1`?
Answer: IC50 [5]: 500 nM; IC50 [6]: 160 nM

Question: For `Cc1ccc(Nc2nc(C(=O)N3CCC(C)CC3)cs2)cc1`, which IC50 [5] is on record?
Answer: 630 nM

Question: And the IC50 [6]?
Answer: 400 nM

Question: Which IC50 [5] does the source give for `Cc1ccc(Nc2nc(C(=O)N3CCC(C4CCCCC4)CC3)cs2)cc1` here?
Answer: 6300 nM

Question: And the IC50 [6]?
Answer: 4000 nM

Question: Which results are given for `Cc1sc(Nc2ccc3c(c2)OCO3)nc1C(=O)N1CCc2ccccc2C1C` (stereo unspecified)?
Answer: IC50 [5]: 316 nM; IC50 [6]: 32 nM

Question: Which Cmax [8] does the source give for `COc1ccc(Nc2nc(C(=O)N3CCc4ccccc4C3)cs2)cc1` here?
Answer: 250 ng/mL

Question: What about the IC50 [5] of the same molecule?
Answer: 1260 nM

Question: What about the AUC/dose [9] of the same molecule?
Answer: 0.14 kg·h/L

Question: What about the MRT [10] of the same molecule?
Answer: 18 min

Question: And the IC50 [6]?
Answer: 500 nM

Question: What about the bioavailability [11] of the same molecule?
Answer: 1%

Question: What about the Vdss [12] of the same molecule?
Answer: 0.7 L/kg

Question: With `CC1CCCN(C(=O)c2csc(Nc3ccc4c(c3)OCO4)n2)C1C` (stereo unspecified) as the molecule, how does the AUC/dose [13] read?
Answer: 0.2 kg·L·h

Question: What about the IC50 [5] of the same molecule?
Answer: 80 nM

Question: And the IC50 [6]?
Answer: 16 nM

Question: What about the clearance [14] of the same molecule?
Answer: 86 mL/min/kg

Question: And the Cmax [15]?
Answer: 340 ng/mL

Question: And the bioavailability [16]?
Answer: < 1%

Question: What about the MRT [17] of the same molecule?
Answer: 126 min

Question: What does the source list for `CC1CCN(C(=O)c2csc(Nc3ccccc3Cl)n2)CC1`?
Answer: IC50 [5]: 6300 nM; IC50 [6]: 3160 nM

Question: Which IC50 [5] does the source give for `Cc1ccc(Nc2nc(C(=O)N3CCCCC3C)cs2)cc1` (stereo unspecified) here?
Answer: 800 nM

Question: And the IC50 [6]?
Answer: 630 nM

Question: What does the source list for `CC1CCN(C(=O)c2csc(Nc3ccc(Cl)cc3)n2)CC1`?
Answer: inhibition [18]: Active; IC50 [5]: 800 nM; IC50 [6]: 800 nM; inhibition [19]: Active

Question: For `Cc1ccc(Nc2nc(C(=O)N3CCCC(c4ccccc4)C3)cs2)cc1` (stereo unspecified), which IC50 [5] is on record?
Answer: > 25000 nM

Question: And the IC50 [6]?
Answer: > 25000 nM
